Results reported in publication PMC8131325 (The Journal of Biological Chemistry, 2021).
Like-named read-outs stand apart in the source and are kept apart here. Ends that are not written are not given here.

Legend:
[1] = tested on: αSyn; experiment: Thio-T fluorescence assay of αSyn fibril formation with added protein; format: biochemical, Human; conditions: αSyn 69 μM, 50 mM Tris-HCl pH 7.4, 150 mM NaCl, 37 °C, agitation
Experimental: The formation of αSyn fibrils were detected in fluorescence assays using Thio-T. Samples (1 mg/ml; 69 μM) of either WT or mutant αSyn were incubated in Thio-T assay buffer (50 mM Tris-HCl, pH 7.4, containing 150 mM NaCl and 20 μM Thio-T) with or without additional FABP3 and/or αSyn-derived oligopeptides. One hundred 50 μl aliquots were incubated in 96-well plates (8 × 12-well plate; Greiner) at 37 °C using an ARVOX4 (PerkinElmer) fluorescent plate reader with continuous agitation. The fluorescence signal of the samples (Ex: 440 nm, Em: 486 nm) were measured at 15 min intervals. In experiments where the effects of delayed FABP3 addition were probed (Fig. 1C), an equimolar concentration of FABP3 was added to the respective wells after an initial agitation regimen of 3, 8, or 24 h. Data shown are the average of data from three 150 μl samples, and error bars indicate standard errors of the mean.

[2] = target: T1, FABP3 (Homo sapiens, UniProt P05413); experiment: Quartz crystal microbalance (QCM) binding assay to immobilized FABP3; conditions: for kon / koff: QCM, immobilized His6-FABP3, 50 mM Tris-HCl pH 7.4, room temperature, kobs = koff + kon[αSyn]
T1 construct: made in house; host or cells: E. coli BLR(DE3), pET28a-derived vector (NdeI/XhoI), synthetic gene (Invitrogen GeneArt)
T1 sequence (P05413 whole entry): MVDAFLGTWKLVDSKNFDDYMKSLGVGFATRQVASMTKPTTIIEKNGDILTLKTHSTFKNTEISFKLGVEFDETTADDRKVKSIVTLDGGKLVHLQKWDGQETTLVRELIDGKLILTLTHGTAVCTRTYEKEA
Experimental: The binding affinities between αSyn and FABP3 were estimated directly using an Affinix QNμ quartz crystal microbalance apparatus operating at room temperature. Samples of His6-FABP3 were affixed to the gold-plated quartz sensor by nickel chelating binding groups as follows. Before binding, the gold sensor was washed with 1% SDS and piranha solution (H2SO4:H2O2 = 3:1). Next, 100 μl of 0.5 mM 3, 3’-dithiobis[N-(5-amino-5-carboxypentyl)propionamide-N’,N’-diacetic acid]dihydrochloride (C₂-NTA, Dojindo) solution was applied and incubated for 10 min at room temperature. This solution was rinsed with Milli-Q water, and 500 μl of Ni+ solution (20 mM Hepes-NaOH buffer, pH 7.5, containing 150 mM NaCl,50 mM EDTA, and 10 mM NiSO4) was added. After a 10 min incubation, the sensor was washed again with Milli-Q, then a 0.1 μM sample of His6-FABP3 in 50 mM Tris-HCl buffer, pH 7.4 was applied. The signal from the quartz sensor was then monitored over a 1 s interval with gentle stirring. To initiate the data sampling run, samples of αSyn with varying concentrations were then applied to the sensor. After each experimental run, the bound His6-FABP3 was removed by the application of 500 μl imidazole solution (0.4 M imidazole/20 mM Hepes pH 7.5/150 mM NaCl) for 30 min, followed by a Milli-Q rinse, and reattachment of Ni-ion and fresh His6-FABP3 to reset the sensor to its original state. Analysis of the raw traces to obtain quantitative affinity values were performed using the software package (AQUA 2.0) provided by the manufacturer, according to the following linear relationship between the observed rate constant kobs and the concentration of αSyn; kobs = koff + kon[αSyn]. Estimated kon and koff values were then used to determine the Kd.

[3] = target: T2, FABP3 F16S (Homo sapiens, UniProt P05413, F17S); experiment: QCM binding assay to immobilized FABP3 F16S mutant
T2 construct: made in house
T2 sequence (P05413 whole entry F17S): as the sequence (P05413 whole entry) above, with F17S counted along it
Experimental: The binding affinities between αSyn and FABP3 were estimated directly using an Affinix QNμ quartz crystal microbalance apparatus operating at room temperature. Samples of His6-FABP3 were affixed to the gold-plated quartz sensor by nickel chelating binding groups as follows. Before binding, the gold sensor was washed with 1% SDS and piranha solution (H2SO4:H2O2 = 3:1). Next, 100 μl of 0.5 mM 3, 3’-dithiobis[N-(5-amino-5-carboxypentyl)propionamide-N’,N’-diacetic acid]dihydrochloride (C₂-NTA, Dojindo) solution was applied and incubated for 10 min at room temperature. This solution was rinsed with Milli-Q water, and 500 μl of Ni+ solution (20 mM Hepes-NaOH buffer, pH 7.5, containing 150 mM NaCl,[…] 10 mM NiSO4) was added. After a 10 min incubation, the sensor was washed again with Milli-Q, then a 0.1 μM sample of His6-FABP3 in 50 mM Tris-HCl buffer, pH 7.4 was applied. The signal from the quartz sensor was then monitored over a 1 s interval with gentle stirring. To initiate the data sampling run, samples of αSyn with varying concentrations were then applied to the sensor. After each experimental run, the bound His6-FABP3 was removed by the application of 500 μl imidazole solution (0.4 M imidazole/20 mM Hepes pH 7.5/150 mM NaCl) for 30 min, followed by a Milli-Q rinse, and reattachment of Ni-ion and fresh His6-FABP3 to reset the sensor to its original state. Analysis of the raw traces to obtain quantitative affinity values were performed using the software package (AQUA 2.0) provided by the manufacturer, according to the following linear relationship between the observed rate constant kobs and the concentration of αSyn; kobs = koff + kon[αSyn]. Estimated kon and koff values were then used to determine the Kd.

[4] = tested on: N2a cells; experiment: Cell viability by Tali Image-Based Cytometer (Calcein-AM/ethidium homodimer); set-up: species or system Mouse; conditions: protein co-expressed with FABP3 in N2a cells, 30 μM 6-OHDA 24 h
Experimental: Cell viability measurements using a Tali Image-Based Cytometer (Thermo Fisher Scientific) were performed according to previous methods ([59]). After 24 h incubation, media was changed to 0% FBS+MEM containing 30 μM 6-hydroxydopamine and incubated for 24 h. Statistical comparisons were performed by Welch’s t test.

[5] = Dynamic light scattering of fibril-forming samples; format: physicochemical; conditions: DLS, 25 °C
Experimental: Dynamic light scattering measurements were performed on an Otsuka Electronics FDLS-3000 monitor with a laser wavelength of 532 nm at an observation angle of 90°. Sample protein concentrations were adjusted to 0.3 mg/ml, and a sample volume of 2 ml was used for measurements. Samples were filtered before measurement.

Compound	kon [2]	koff ([2]; read-out: koff)	other results
bovine serum albumin	–	–	effect of added protein on αSyn fibril formation [1]: no significant suppressive effects in fibrillation of αSyn
EEGFQDFEPEA [αSynP130-140 Y133F/Y136F]	5.4 × 10^5 M^−1・s^−1	0.0011 s⁻¹	–
CCCCC/C=C\C/C=C\C/C=C\C/C=C\CCCC(=O)O [arachidonic acid, reference compound]	0.8 × 10^5 M^−1・s^−1	0.0006 s⁻¹	Kd [2]: 6.8 nM; Kd [3]: 2090 nM; koff [3]: 0.0047 s⁻¹; kon [3]: 0.02 × 10^5 M^−1・s^−1
EEGWQDWEPEA [αSynP130-140Y133W/Y136W]	2.4 × 10^5 M^−1・s^−1	0.0015 s⁻¹	–
lysozyme	–	–	effect of added protein on αSyn fibril formation [1]: no significant suppressive effects in fibrillation of αSyn
α-synuclein [αSyn]	6.4 × 10^5 M^−1・s^−1	–	Kd ([2]; QCM (Affinix QNμ), His6-FABP3 immobilized via Ni-NTA on gold sensor, 50 mM Tris-HCl pH 7.4, room temperature, Kd determined from estimated kon and koff): 7.2 nM; koff [2]: 0.0046 s⁻¹; binding to FABP3 F16S (in words) [3]: unable to bind; Alive cells [4]: 77%; Dead cells [4]: 0%; Dying cells (co-stained with Calcein-AM and EthD-1) ([4]; control 12%): 23%; average particle size ([5]; αSyn alone, absence of FABP3, after 1200 min incubation): 6 μm; average particle size ([5]; αSyn in the presence of FABP3, after 1200 min incubation): 0.63 μm
EEGFQDWEPEA [αSynP130-140 Y133F/Y136W]	3.2 × 10^5 M^−1・s^−1	0.0019 s⁻¹	Kd [2]: 6.1 nM
EEGYQDYEPEA [αSynP130-140]	2.0 × 10^5 M^−1・s^−1	0.0012 s⁻¹	Kd [2]: 6.1 nM
EEGYQDFEPEA [αSynP130-140Y136F]	4.8 × 10^5 M^−1・s^−1	0.0037 s⁻¹	–
EEGFQDYEPEA [αSynP130-140Y133F]	7.5 × 10^5 M^−1・s^−1	0.0015 s⁻¹	–
EEGYQDWEPEA [αSynP130-140Y136W]	3.8 × 10^5 M^−1・s^−1	0.0024 s⁻¹	–
